ChEMBL document CHEMBL5104152, “DNA-encoded library screening on two validated enzymes of the peptidoglycan biosynthetic pathway” (Bioorg Med Chem Lett, 2022)

Tests used:
[1] = biological target: UDP-N-acetylglucosamine 1-carboxyvinyltransferase (Escherichia coli K-12) (UniProt P0A749); experiment: Inhibition of recombinant Escherichia coli MurA assessed as residual activity at 0.5 mM using UDP-N-acetylglucosamine as substrate incubated for 15 mins and measured by malachite green based colorimetric assay relative to control
Sequence of UDP-N-acetylglucosamine 1-carboxyvinyltransferase (Escherichia coli K-12) (P0A749 whole entry): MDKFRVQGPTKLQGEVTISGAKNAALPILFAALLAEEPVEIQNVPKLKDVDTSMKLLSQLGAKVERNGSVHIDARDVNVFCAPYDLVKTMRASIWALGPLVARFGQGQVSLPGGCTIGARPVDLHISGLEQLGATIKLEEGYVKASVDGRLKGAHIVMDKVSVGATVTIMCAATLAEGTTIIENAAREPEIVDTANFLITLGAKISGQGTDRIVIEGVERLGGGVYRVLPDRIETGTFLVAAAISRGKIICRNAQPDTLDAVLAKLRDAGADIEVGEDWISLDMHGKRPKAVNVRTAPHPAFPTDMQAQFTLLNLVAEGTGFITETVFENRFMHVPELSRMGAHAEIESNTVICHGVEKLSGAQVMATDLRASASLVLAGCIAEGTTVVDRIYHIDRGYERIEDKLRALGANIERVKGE

[2] = biological target: D-alanine--D-alanine ligase B (Escherichia coli K-12) (UniProt P07862); experiment: Inhibition of recombinant Escherichia coli DdlB assessed as residual activity at 100 uM using D-alanine as substrate incubated for 20 mins and measured by malachite green based colorimetric assay relative to control
[3] = biological target: UDP-N-acetylglucosamine 1-carboxyvinyltransferase (Escherichia coli K-12) (UniProt P0A749); experiment: Inhibition of recombinant Escherichia coli MurA assessed as residual activity at 1 mM using UDP-N-acetylglucosamine as substrate incubated for 15 mins and measured by malachite green based colorimetric assay relative to control
[4] = biological target: D-alanine--D-alanine ligase B (Escherichia coli K-12) (UniProt P07862); experiment: Inhibition of recombinant Escherichia coli DdlB assessed as residual activity at 1 mM using D-alanine as substrate incubated for 20 mins and measured by malachite green based colorimetric assay relative to control
[5] = biological target: D-alanine--D-alanine ligase B (Escherichia coli K-12) (UniProt P07862); experiment: Inhibition of recombinant Escherichia coli DdlB assessed as residual activity at 500 uM using D-alanine as substrate incubated for 20 mins and measured by malachite green based colorimetric assay relative to control
[6] = biological target: D-alanine--D-alanine ligase B (Escherichia coli K-12, UniProt P07862); experiment: Inhibition of recombinant Escherichia coli DdlB using D-alanine as substrate incubated for 20 mins and measured by malachite green based colorimetric assay
[7] = system: Escherichia coli; experiment: Antibacterial activity against Escherichia coli N43 incubated for 20 hrs and measured by broth microdilution method; format: functional
[8] = system: Escherichia coli; experiment: Antibacterial activity against Escherichia coli D22 incubated for 20 hrs and measured by broth microdilution method; format: functional
[9] = system: Escherichia coli; experiment: Antibacterial activity against Escherichia coli ATCC 25922 incubated for 20 hrs and measured by broth microdilution method; format: functional
[10] = system: Staphylococcus aureus; experiment: Antibacterial activity against Staphylococcus aureus ATCC 29213 incubated for 20 hrs and measured by broth microdilution method; format: functional
[11] = biological target: UDP-N-acetylglucosamine 1-carboxyvinyltransferase (Escherichia coli K-12, UniProt P0A749); experiment: Inhibition of recombinant Escherichia coli MurA using UDP-N-acetylglucosamine as substrate incubated for 15 mins and measured by malachite green based colorimetric assay
Sequence of UDP-N-acetylglucosamine 1-carboxyvinyltransferase (P0A749 whole entry): as above

[12] = biological target: UDP-N-acetylglucosamine 1-carboxyvinyltransferase (Escherichia coli K-12) (UniProt P0A749); experiment: Inhibition of recombinant Escherichia coli MurA assessed as residual activity at 0.1 mM using UDP-N-acetylglucosamine as substrate incubated for 15 mins and measured by malachite green based colorimetric assay relative to control
[13] = biological target: D-alanine--D-alanine ligase B (Escherichia coli K-12) (UniProt P07862); experiment: Inhibition of recombinant Escherichia coli DdlB assessed as residual activity at 20 uM using D-alanine as substrate incubated for 20 mins and measured by malachite green based colorimetric assay relative to control

CC(=O)Nc1ccc(-c2cc(C(=O)O)c3ccccc3n2)cc1
Activity [1]: 82.6%

CNC(=O)C[C@H](C)NC(=O)c1nsc2ccc(-c3cc(F)cc(F)c3)cc12
Activity [2]: 87%

O=C(O)c1cc(-c2cccc(O)c2)nc2ccccc12
Activity [3]: 72.9%

O=C(O)CCc1c[nH]c2ccc(F)cc12
Activity [4]: 94.2%

CCN(CC)C(=O)c1ccc(-c2cc3nc[nH]c3nc2C(=O)N[C@@H](Cc2ccccc2F)C(=O)NC)cc1
Activity [5]: 81%

O=C(O)c1cc(-c2ccccc2Cl)nc2ccccc12
Activity [3]: 58.8%

O=C(O)c1cc(-c2ccc(Cl)cc2)nc2ccccc12
Activity [3]: 79.3%

CC[C@H](C)[C@@H](CCC(=O)NC)NC(=O)[C@H](Cc1c[nH]c2ccc(F)cc12)NC(=O)[C@H](CCC(C)C)NCc1cnn(C)c1-c1ccc(OC)cc1
IC50 [6]: 243 µM | MIC [7]: > 250 µM | MIC [8]: > 250 µM | MIC [9]: > 250 µM | MIC [10]: > 250 µM

CNC(=O)[C@@H](Cc1c[nH]c2ccccc12)NCc1ccc(-n2ccnc2)c(-c2ccc(-c3cc(C(=O)O)c4ccccc4n3)cc2)c1
IC50 [11]: 15.5 µM

O=C(O)c1cc(-c2ccccc2O)nc2ccccc12
Activity [3]: 77.5%

O=C(O)c1cc(-c2ccc(/C=C/c3ccccc3)cc2)nc2ccccc12
MIC [7]: > 128 µg/mL | IC50 [11]: 78.3 µM | MIC [8]: 32 µg/mL | MIC [9]: > 128 µg/mL | MIC [10]: 64 µg/mL

O=C(O)c1c(-c2ccccc2)c(-c2ccccc2)nc2ccccc12
Activity [3]: 85.2%

COc1ccc(-c2cc[nH]n2)cc1
Activity [4]: 92.9%

Cc1c[nH]c2ccc(F)cc12
Activity [4]: 108%

COc1ccc(-c2[nH]ncc2CN)cc1
Activity [4]: 58.6%

NC(Cc1c[nH]c2ccc(F)cc12)C(=O)O (configuration not stated)
Activity [4]: 92.5%

O=C(O)c1cc(-c2ccccc2)nc2c(Cl)cccc12
Activity [3]: 95.2%

O=C(O)c1cc(-c2ccccc2)nc2ccc(Cl)cc12
Activity [3]: 86.3%

COC(=O)c1cc(-c2ccccc2)nc2ccccc12
Activity [3]: 92.6%

O=C(O)c1cc(-c2ccc(-c3ccc([N+](=O)[O-])cc3)cc2)nc2ccc(Br)cc12
Activity [12]: 100%

O=C(O)c1cc(-c2ccc(-c3ccccc3)cc2)nc2ccccc12
MIC [7]: > 128 µg/mL | IC50 [11]: 172 µM | MIC [8]: 128 µg/mL | MIC [9]: > 128 µg/mL | MIC [10]: 128 µg/mL

O=C(O)c1cc(-c2ccc(C3CCCCC3)cc2)nc2ccccc12
Activity [12]: 98.3%

CNC(=O)[C@@H](Cc1cn(C(=O)OC(C)(C)C)c2ccccc12)NCc1ccc(-n2ccnc2)c(-c2ccc(-c3cc(C(=O)O)c4ccccc4n3)cc2)c1
MIC [7]: > 128 µg/mL | IC50 [11]: 14.1 µM | MIC [8]: > 128 µg/mL | MIC [9]: > 128 µg/mL | MIC [10]: > 128 µg/mL

O=C(O)c1cc(-c2ccc3c(c2)OCCO3)nc2ccccc12
Activity [3]: 77.3%

O=C(O)c1cc(-c2ccc(O)cc2)nc2ccccc12
Activity [3]: 66.6%

O=C(O)c1cc(-c2cccc(Cl)c2)nc2ccccc12
Activity [3]: 82.4%

O=C(O)c1cc(-c2ccco2)nc2ccccc12
Activity [3]: 68%

CNC(=O)[C@@H]1[C@@H](C)OC(C)(C)N1C(=O)[C@@H](NC(=O)c1nsc2ccc(-c3cc(F)cc(F)c3)cc12)C(C)C
Activity [13]: 103%

CNC(=O)[C@H]1CCCC[C@H]1NC(=O)c1nsc2ccc(-c3cc(F)cc(F)c3)cc12
Activity [13]: 106%

CNC(=O)C(N)Cc1c[nH]c2ccccc12 (configuration not stated)
Activity [3]: 95.3%

O=C(O)c1cc(-c2ccccc2)nc2cc(Cl)ccc12
Activity [3]: 101%
